Source: PubChem BioAssay AID1963423 (Molecular Pharmacology Branch, DTP, NCI, 2024)
pIC50: −log10 of the molar value.

Test system: 439559-082-T-J2-PDC complex spheroid growth
Experiment: Anticancer human tumor 439559-082-T-J2-PDC patient-derived colon adenocarcinoma cell line growth inhibition [Asc]
Conditions: for pIC50: curve of first compound; for viability, T/C: stronger effect = lower value
How it was run: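 Complex spheroids combining tumor cells with HUVEC endothelial cells and human MSCs, at 37 degrees C, 5% CO2; agents tested alone or combined, half-log dilutions from at or near clinical Cmax, or 10 microM if Cmax unknown.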

[1] = second compound 0.1 µM, first compound 0.0316 µM
[2] = second compound 0.1 µM, first compound 0.1 µM
[3] = second compound 0.1 µM, first compound 0.316 µM
[4] = second compound 0.1 µM, first compound 1 µM
[5] = second compound 0.1 µM, first compound 3.16 µM
[6] = second compound 0.1 µM, first compound 10 µM
[7] = second compound 0.316 µM, first compound 0.0316 µM
[8] = second compound 0.316 µM, first compound 0.1 µM
[9] = second compound 0.316 µM, first compound 0.316 µM
[10] = second compound 0.316 µM, first compound 1 µM
[11] = second compound 0.316 µM, first compound 3.16 µM
[12] = second compound 0.316 µM, first compound 10 µM
[13] = second compound 1 µM, first compound 0.0316 µM
[14] = second compound 1 µM, first compound 0.1 µM
[15] = second compound 1 µM, first compound 0.316 µM
[16] = second compound 1 µM, first compound 1 µM
[17] = second compound 1 µM, first compound 3.16 µM
[18] = second compound 1 µM, first compound 10 µM
[19] = second compound 3.16 µM, first compound 0.0316 µM
[20] = second compound 3.16 µM, first compound 0.1 µM
[21] = second compound 3.16 µM, first compound 0.316 µM
[22] = second compound 3.16 µM, first compound 1 µM
[23] = second compound 3.16 µM, first compound 3.16 µM
[24] = second compound 3.16 µM, first compound 10 µM
[25] = second compound 10 µM, first compound 0.0316 µM
[26] = second compound 10 µM, first compound 0.1 µM
[27] = second compound 10 µM, first compound 0.316 µM
[28] = second compound 10 µM, first compound 1 µM
[29] = second compound 10 µM, first compound 3.16 µM
[30] = second compound 10 µM, first compound 10 µM
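Note: spheroids exposed to agents for 7 days starting day 3 after seeding.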
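Throughout, for viability, T/C: percent of DMSO vehicle control viability with 100% = vehicle.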

C=C(F)C(=O)N1CCN(c2nc(OCC3CCCN3C)nc3c2CCN(c2cccc4cccc(Cl)c24)C3)CC1CC#N (stereo not given) + Cc1c(S(C)(=O)=O)c(-c2cc(F)cc(N3CCN(c4ccc(NS(=O)(=O)c5ccc(NC(CCN6CCC(C(=O)OCCCP(=O)(O)O)CC6)CSc6ccccc6)c(S(=O)(=O)C(F)(F)F)c5)cc4)CC3)c2)c(-c2ccc(Cl)cc2)n1C(C)C
pIC50 (second compound 0.1 µM): 5.29 | pIC50 (second compound 0.316 µM): 5.38 | pIC50 (second compound 1 µM): 5.38 | pIC50 (second compound 3.16 µM): 5.50 | pIC50 (second compound 10 µM): 5.56 | viability, T/C [1]: 96.8% | viability, T/C [2]: 107% | viability, T/C [3]: 95% | viability, T/C [4]: 88.6% | viability, T/C [5]: 78.4% | viability, T/C [6]: 14.2% | viability, T/C [7]: 95.3% | viability, T/C [8]: 106% | viability, T/C [9]: 98.5% | viability, T/C [10]: 77.7% | viability, T/C [11]: 69.2% | viability, T/C [12]: 4.6% | viability, T/C [13]: 95.8% | viability, T/C [14]: 94.5% | viability, T/C [15]: 103% | viability, T/C [16]: 84.5% | viability, T/C [17]: 66.6% | viability, T/C [18]: 0.51% | viability, T/C [19]: 79.1% | viability, T/C [20]: 95.3% | viability, T/C [21]: 93.4% | viability, T/C [22]: 71.7% | viability, T/C [23]: 51.6% | viability, T/C [24]: 0.43% | viability, T/C [25]: 68% | viability, T/C [26]: 85.8% | viability, T/C [27]: 86.3% | viability, T/C [28]: 65.8% | viability, T/C [29]: 48.5% | viability, T/C [30]: 2.9%

C=CC(=O)N1CCN(c2nc(=O)n(-c3c(C)ccnc3C(C)C)c3nc(-c4c(O)cccc4F)c(F)cc23)C(C)C1 (stereo not given) + Cc1c(S(C)(=O)=O)c(-c2cc(F)cc(N3CCN(c4ccc(NS(=O)(=O)c5ccc(NC(CCN6CCC(C(=O)OCCCP(=O)(O)O)CC6)CSc6ccccc6)c(S(=O)(=O)C(F)(F)F)c5)cc4)CC3)c2)c(-c2ccc(Cl)cc2)n1C(C)C
pIC50 (second compound 0.1 µM): < 5.00 | pIC50 (second compound 0.316 µM): < 5.00 | pIC50 (second compound 1 µM): < 5.00 | pIC50 (second compound 3.16 µM): < 5.00 | pIC50 (second compound 10 µM): < 5.00 | viability, T/C [1]: 97.6% | viability, T/C [2]: 112% | viability, T/C [3]: 99.2% | viability, T/C [4]: 97.4% | viability, T/C [5]: 109% | viability, T/C [6]: 99.8% | viability, T/C [7]: 93.5% | viability, T/C [8]: 107% | viability, T/C [9]: 108% | viability, T/C [10]: 98.2% | viability, T/C [11]: 96.6% | viability, T/C [12]: 88.3% | viability, T/C [13]: 99.1% | viability, T/C [14]: 102% | viability, T/C [15]: 105% | viability, T/C [16]: 88.9% | viability, T/C [17]: 89.8% | viability, T/C [18]: 91.6% | viability, T/C [19]: 99.1% | viability, T/C [20]: 101% | viability, T/C [21]: 103% | viability, T/C [22]: 89.1% | viability, T/C [23]: 88.1% | viability, T/C [24]: 94.6% | viability, T/C [25]: 78% | viability, T/C [26]: 80% | viability, T/C [27]: 80.5% | viability, T/C [28]: 73.8% | viability, T/C [29]: 87.6% | viability, T/C [30]: 81.3%

CCN1C(C(=O)NC23CCC(C(=O)O)(CC2)CC3)C(c2cccc(Cl)c2F)C2(C(=O)Nc3cc(Cl)ccc32)C12CCCCC2 (stereo not given) + Cc1c(S(C)(=O)=O)c(-c2cc(F)cc(N3CCN(c4ccc(NS(=O)(=O)c5ccc(NC(CCN6CCC(C(=O)OCCCP(=O)(O)O)CC6)CSc6ccccc6)c(S(=O)(=O)C(F)(F)F)c5)cc4)CC3)c2)c(-c2ccc(Cl)cc2)n1C(C)C
pIC50 (second compound 0.1 µM): < 5.52 | pIC50 (second compound 0.316 µM): < 5.52 | pIC50 (second compound 1 µM): < 5.52 | pIC50 (second compound 3.16 µM): < 5.52 | pIC50 (second compound 10 µM): < 5.52 | viability, T/C (second compound 0.1 µM, first compound 0.00949 µM): 96.8% | viability, T/C (second compound 0.1 µM, first compound 0.03 µM): 104% | viability, T/C (second compound 0.1 µM, first compound 0.0949 µM): 102% | viability, T/C (second compound 0.1 µM, first compound 0.3 µM): 98.6% | viability, T/C (second compound 0.1 µM, first compound 0.949 µM): 95.4% | viability, T/C (second compound 0.1 µM, first compound 3 µM): 93.1% | viability, T/C (second compound 0.316 µM, first compound 0.00949 µM): 103% | viability, T/C (second compound 0.316 µM, first compound 0.03 µM): 104% | viability, T/C (second compound 0.316 µM, first compound 0.0949 µM): 102% | viability, T/C (second compound 0.316 µM, first compound 0.3 µM): 87.8% | viability, T/C (second compound 0.316 µM, first compound 0.949 µM): 97.9% | viability, T/C (second compound 0.316 µM, first compound 3 µM): 86.2% | viability, T/C (second compound 1 µM, first compound 0.00949 µM): 90.8% | viability, T/C (second compound 1 µM, first compound 0.03 µM): 97% | viability, T/C (second compound 1 µM, first compound 0.0949 µM): 99.7% | viability, T/C (second compound 1 µM, first compound 0.3 µM): 84.5% | viability, T/C (second compound 1 µM, first compound 0.949 µM): 88.5% | viability, T/C (second compound 1 µM, first compound 3 µM): 79.3% | viability, T/C (second compound 3.16 µM, first compound 0.00949 µM): 81.5% | viability, T/C (second compound 3.16 µM, first compound 0.03 µM): 92% | viability, T/C (second compound 3.16 µM, first compound 0.0949 µM): 91.4% | viability, T/C (second compound 3.16 µM, first compound 0.3 µM): 89% | viability, T/C (second compound 3.16 µM, first compound 0.949 µM): 82% | viability, T/C (second compound 3.16 µM, first compound 3 µM): 67.8% | viability, T/C (second compound 10 µM, first compound 0.00949 µM): 69.9% | viability, T/C (second compound 10 µM, first compound 0.03 µM): 77.7% | viability, T/C (second compound 10 µM, first compound 0.0949 µM): 74.3% | viability, T/C (second compound 10 µM, first compound 0.3 µM): 69.5% | viability, T/C (second compound 10 µM, first compound 0.949 µM): 74.1% | viability, T/C (second compound 10 µM, first compound 3 µM): 57.3%
